# Test results reported in paper PMC5975062 (Alzheimer's & Dementia : Translational Research & Clinical …, 2015).
# Marks after values point to notes of the source that are not given here.
# Test: Safety and tolerability
# Format: in vivo, human
# [1] = 20 mg bid 11 d solution, fasted, nonelderly
# [2] = 50 mg bid 11 d solution, fasted, nonelderly
# [3] = 100 mg bid 11 d solution, fed, nonelderly
# [4] = 200 mg bid 7 d capsule, fasted, elderly
# [5] = 200 mg bid 11 d solution, fasted, nonelderly
# [6] = 300 mg bid 7 d capsule, fasted, elderly
# [7] = 400 mg bid 11 d capsule, fasted, nonelderly
# [8] = 500 mg bid 11 d capsule, fed, nonelderly
# [9] = 500 mg bid 11 d tablet, fasted, elderly
# [10] = 800 mg bid 11 d tablet, fasted, elderly
smiles,measurement,setting,value
CCCOc1ccc([C@H]2CNC(=O)N2c2ccc3[nH]cnc3c2)cc1 [PQ912],"Abdominal pain, number of TEAEs",[1],1 [1]
same,"Abdominal pain, number of subjects",[1],1 [1]
same,"Headache, number of TEAEs",[1],7
same,"Headache, number of subjects",[1],3
same,"Neck pain, number of TEAEs",[1],1 [1]
same,"Neck pain, number of subjects",[1],1 [1]
same,Number of AEs,[1],16
same,"Subjects with AEs, number",[1],7
same,"Subjects with AEs, percentage of total subjects",[1],87.5%
same,"Abdominal pain, number of TEAEs",[2],1 [1]
same,"Abdominal pain, number of subjects",[2],1 [1]
same,"Chest pain, number of TEAEs",[2],1 [1]
same,"Chest pain, number of subjects",[2],1 [1]
same,"Dizziness, number of TEAEs",[2],1 [1]
same,"Dizziness, number of subjects",[2],1 [1]
same,"Headache, number of TEAEs",[2],8
same,"Headache, number of subjects",[2],4
same,"Injection site pain, number of TEAEs",[2],6
same,"Injection site pain, number of subjects",[2],5
same,"Nausea, number of TEAEs",[2],1 [1]
same,"Nausea, number of subjects",[2],1 [1]
same,Number of AEs,[2],22
same,"Subjects with AEs, number",[2],7
same,"Subjects with AEs, percentage of total subjects",[2],87.5%
same,"Back pain, number of TEAEs",[3],1 [1]
same,"Back pain, number of subjects",[3],1 [1]
same,"Chest pain, number of TEAEs",[3],1 [1]
same,"Chest pain, number of subjects",[3],1 [1]
same,"Headache, number of TEAEs",[3],4
same,"Headache, number of subjects",[3],3
same,"Injection site pain, number of TEAEs",[3],3 [3]
same,"Injection site pain, number of subjects",[3],3 [3]
same,Number of AEs,[3],16
same,"Presyncope, number of TEAEs",[3],6 [6]
same,"Presyncope, number of subjects",[3],6 [6]
same,"Subjects with AEs, number",[3],8
same,"Subjects with AEs, percentage of total subjects",[3],100.0%
same,Number of AEs,[4],3
same,"Subjects with AEs, number",[4],3
same,"Subjects with AEs, percentage of total subjects",[4],50.0%
same,"Abdominal pain, number of TEAEs",[5],1 [1]
same,"Abdominal pain, number of subjects",[5],1 [1]
same,"Back pain, number of TEAEs",[5],1 [1]
same,"Back pain, number of subjects",[5],1 [1]
same,"Chest pain, number of TEAEs",[5],1 [1]
same,"Chest pain, number of subjects",[5],1 [1]
same,"Diarrhea, number of TEAEs",[5],1 [1]
same,"Diarrhea, number of subjects",[5],1 [1]
same,"Flatulence, number of TEAEs",[5],1 [1]
same,"Flatulence, number of subjects",[5],1 [1]
same,"Nausea, number of TEAEs",[5],1 [1]
same,"Nausea, number of subjects",[5],1 [1]
same,"Neck pain, number of TEAEs",[5],1 [1]
same,"Neck pain, number of subjects",[5],1 [1]
same,Number of AEs,[5],11
same,"Subjects with AEs, number",[5],6
same,"Subjects with AEs, percentage of total subjects",[5],75.0%
same,"Back pain, number of TEAEs",[6],1 [1]
same,"Back pain, number of subjects",[6],1 [1]
same,"Headache, number of TEAEs",[6],4 [4]
same,"Headache, number of subjects",[6],4 [4]
same,"Injection site pain, number of TEAEs",[6],4 [4]
same,"Injection site pain, number of subjects",[6],4 [4]
same,Number of AEs,[6],13
same,"Pain in extremity, number of TEAEs",[6],2
same,"Pain in extremity, number of subjects",[6],1
same,"Subjects with AEs, number",[6],6
same,"Subjects with AEs, percentage of total subjects",[6],75.0%
same,"Abdominal pain, number of TEAEs",[7],1 [1]
same,"Abdominal pain, number of subjects",[7],1 [1]
same,"Back pain, number of TEAEs",[7],1 [1]
same,"Back pain, number of subjects",[7],1 [1]
same,"Headache, number of TEAEs",[7],4
same,"Headache, number of subjects",[7],3
same,Number of AEs,[7],9
same,"Presyncope, number of TEAEs",[7],1 [1]
same,"Presyncope, number of subjects",[7],1 [1]
same,"Subjects with AEs, number",[7],5
same,"Subjects with AEs, percentage of total subjects",[7],62.5%
same,"Abdominal pain, number of TEAEs",[8],1 [1]
same,"Abdominal pain, number of subjects",[8],1 [1]
same,"Abnormal sensation in eye, number of TEAEs",[8],2 [2]
same,"Abnormal sensation in eye, number of subjects",[8],2 [2]
same,"Back pain, number of TEAEs",[8],5
same,"Back pain, number of subjects",[8],4
same,"Diarrhea, number of TEAEs",[8],1 [1]
same,"Diarrhea, number of subjects",[8],1 [1]
same,"Dizziness, number of TEAEs",[8],2 [2]
same,"Dizziness, number of subjects",[8],2 [2]
same,"Headache, number of TEAEs",[8],3 [3]
same,"Headache, number of subjects",[8],3 [3]
same,"Nausea, number of TEAEs",[8],1 [1]
same,"Nausea, number of subjects",[8],1 [1]
same,Number of AEs,[8],30 ^‡
same,"Pain in extremity, number of TEAEs",[8],2 [2]
same,"Pain in extremity, number of subjects",[8],2 [2]
same,"Subjects with AEs, number",[8],8
same,"Subjects with AEs, percentage of total subjects",[8],100.0%
same,"Abdominal pain, number of TEAEs",[9],1 [1]
same,"Abdominal pain, number of subjects",[9],1 [1]
same,"Back pain, number of TEAEs",[9],1 [1]
same,"Back pain, number of subjects",[9],1 [1]
same,"Constipation, number of TEAEs",[9],2 [2]
same,"Constipation, number of subjects",[9],2 [2]
same,"Contusion, number of TEAEs",[9],3
same,"Contusion, number of subjects",[9],2
same,"Diarrhea, number of TEAEs",[9],1 [1]
same,"Diarrhea, number of subjects",[9],1 [1]
same,"Dizziness, number of TEAEs",[9],2
same,"Dizziness, number of subjects",[9],1
same,"Headache, number of TEAEs",[9],4
same,"Headache, number of subjects",[9],2
same,"Injection site pain, number of TEAEs",[9],1 [1]
same,"Injection site pain, number of subjects",[9],1 [1]
same,"Nausea, number of TEAEs",[9],4
same,"Nausea, number of subjects",[9],3
same,Number of AEs,[9],32
same,"Subjects with AEs, number",[9],9
same,"Subjects with AEs, percentage of total subjects",[9],75.0%
same,"Chest pain, number of TEAEs",[10],2
same,"Chest pain, number of subjects",[10],1
same,"Constipation, number of TEAEs",[10],2 [2]
same,"Constipation, number of subjects",[10],2 [2]
same,"Contusion, number of TEAEs",[10],1 [1]
same,"Contusion, number of subjects",[10],1 [1]
same,"Diarrhea, number of TEAEs",[10],1 [1]
same,"Diarrhea, number of subjects",[10],1 [1]
same,"Flatulence, number of TEAEs",[10],3 [3]
same,"Flatulence, number of subjects",[10],3 [3]
same,"Headache, number of TEAEs",[10],2 [2]
same,"Headache, number of subjects",[10],2 [2]
same,"Nausea, number of TEAEs",[10],2 [2]
same,"Nausea, number of subjects",[10],2 [2]
same,"Neck pain, number of TEAEs",[10],1 [1]
same,"Neck pain, number of subjects",[10],1 [1]
same,Number of AEs,[10],34
same,"Pollakiuria, number of TEAEs",[10],2 [2]
same,"Pollakiuria, number of subjects",[10],2 [2]
same,"Subjects with AEs, number",[10],6
same,"Subjects with AEs, percentage of total subjects",[10],100%
same,subjects withdrawn because of a TEAE (urticaria papular),"500-mg bid, 11 days, capsule, fed, about 3.5 hours after the 18th dose",One subject
same,"drug-related TEAEs, events","after multiple doses, 102 subjects (PQ912 or placebo)",113
same,subjects reporting drug-related TEAEs,"after multiple doses, of 102 subjects (PQ912 or placebo)",47
same,"drug-related TEAEs, events","after single doses, 104 subjects (PQ912 or placebo)",25
same,subjects reporting drug-related TEAEs,"after single doses, of 104 subjects (PQ912 or placebo)",16
same,subjects with clinically significant changes in clinical laboratory parameters,"increases in serum potassium, erythrocytes, leukocytes",four subjects
same,"Back pain, number of TEAEs","single 30 mg solution, fasted",1 [1]
same,"Back pain, number of subjects","single 30 mg solution, fasted",1 [1]
same,Number of AEs,"single 30 mg solution, fasted",2
same,"Subjects with AEs, number","single 30 mg solution, fasted",2
same,"Subjects with AEs, percentage of total subjects","single 30 mg solution, fasted",33.3%
same,"Back pain, number of TEAEs","single 50 mg solution, fasted",1 [1]
same,"Back pain, number of subjects","single 50 mg solution, fasted",1 [1]
same,"Fatigue, number of TEAEs","single 50 mg solution, fasted",1 [1]
same,"Fatigue, number of subjects","single 50 mg solution, fasted",1 [1]
same,"Headache, number of TEAEs","single 50 mg solution, fasted",3
same,"Headache, number of subjects","single 50 mg solution, fasted",2
same,"Injection site pain, number of TEAEs","single 50 mg solution, fasted",1 [1]
same,"Injection site pain, number of subjects","single 50 mg solution, fasted",1 [1]
same,"Nausea, number of TEAEs","single 50 mg solution, fasted",1 [1]
same,"Nausea, number of subjects","single 50 mg solution, fasted",1 [1]
same,Number of AEs,"single 50 mg solution, fasted",11
same,"Subjects with AEs, number","single 50 mg solution, fasted",5
same,"Subjects with AEs, percentage of total subjects","single 50 mg solution, fasted",83.3%
same,"Vomiting, number of TEAEs","single 50 mg solution, fasted",2
same,"Vomiting, number of subjects","single 50 mg solution, fasted",1
same,"Back pain, number of TEAEs","single 100 mg solution, fasted",3 [3]
same,"Back pain, number of subjects","single 100 mg solution, fasted",3 [3]
same,"Fatigue, number of TEAEs","single 100 mg solution, fasted",1 [1]
same,"Fatigue, number of subjects","single 100 mg solution, fasted",1 [1]
same,Number of AEs,"single 100 mg solution, fasted",7
same,"Subjects with AEs, number","single 100 mg solution, fasted",3
same,"Subjects with AEs, percentage of total subjects","single 100 mg solution, fasted",37.5%
same,"Back pain, number of TEAEs","single 400 mg solution, fasted",2 [2]
same,"Back pain, number of subjects","single 400 mg solution, fasted",2 [2]
same,"Headache, number of TEAEs","single 400 mg solution, fasted",1 [1]
same,"Headache, number of subjects","single 400 mg solution, fasted",1 [1]
same,"Injection site pain, number of TEAEs","single 400 mg solution, fasted",1 [1]
same,"Injection site pain, number of subjects","single 400 mg solution, fasted",1 [1]
same,Number of AEs,"single 400 mg solution, fasted",7
same,"Presyncope, number of TEAEs","single 400 mg solution, fasted",1 [1]
same,"Presyncope, number of subjects","single 400 mg solution, fasted",1 [1]
same,"Subjects with AEs, number","single 400 mg solution, fasted",4
same,"Subjects with AEs, percentage of total subjects","single 400 mg solution, fasted",33.3%
same,"Nausea, number of TEAEs","single 800 mg capsule, fasted",1 [1]
same,"Nausea, number of subjects","single 800 mg capsule, fasted",1 [1]
same,Number of AEs,"single 800 mg capsule, fasted",2
same,"Subjects with AEs, number","single 800 mg capsule, fasted",1
same,"Subjects with AEs, percentage of total subjects","single 800 mg capsule, fasted",16.7%
same,"Vomiting, number of TEAEs","single 800 mg capsule, fasted",1 [1]
same,"Vomiting, number of subjects","single 800 mg capsule, fasted",1 [1]
same,"Headache, number of TEAEs","single 1200 mg capsule, fed",1 [1]
same,"Headache, number of subjects","single 1200 mg capsule, fed",1 [1]
same,Number of AEs,"single 1200 mg capsule, fed",2
same,"Subjects with AEs, number","single 1200 mg capsule, fed",1
same,"Subjects with AEs, percentage of total subjects","single 1200 mg capsule, fed",16.7%
same,"Nausea, number of TEAEs","single 1800 mg tablet, fasted",2 [2]
same,"Nausea, number of subjects","single 1800 mg tablet, fasted",2 [2]
same,Number of AEs,"single 1800 mg tablet, fasted",2
same,"Subjects with AEs, number","single 1800 mg tablet, fasted",2
same,"Subjects with AEs, percentage of total subjects","single 1800 mg tablet, fasted",33.3%
same,overall safety and tolerability,"single doses up to 3600 mg, bid doses up to 800 mg",safe and well tolerated
same,serious adverse events,whole study,no serious adverse events
same,"vital signs, 12-lead ECGs, telemetry, physical examinations",whole study,no clinically significant findings
